Data reported in US20230312587A1, “PTERIDINONE COMPOUNDS AND USES THEREOF” (Vertex Pharmaceutical Incorporated, priority 2018, published 2023).

system: β-catenin-TCF-mediated reporter transcription activity in Colo 205 cells; experiment: Colo 205 reporter assay (TCF/LEF luciferase); assay type: cell-based; settings: Colo 205 TCF/LEF luciferase reporter, five hours after addition of compound; read-out: TCF reporter Colo205 IC50
Text: The compounds of the invention described herein were screened using the assay procedure for β-catenin-TCF-mediated reporter transcription activity described below.
Reporter cell lines were generated by stably transfecting cells of cancer cell lines (e.g., colon cancer) with a plasmid reporter construct (From SABiosciences, a QIAGEN company) that includes TCF/LEF promoter driving expression of the firefly luciferase gene. TCF/LEF reporter constructs were made in which TCF/LEF promoter, a promoter with optimal number of TCF/LEF binding sites designed by SABiosceinces, was linked upstream of the firefly luciferase gene. This construct could also include a puromycin resistance gene as a selectable marker. This construct could also be used to stably transfect Colo 205 cells, a colon cancer cell line having a mutated APC gene that causes a constitutively active β-catenin. A control cell line was generated using another plasmid construct containing the luciferase gene under the control of a CMV basal promoter which is not activated by p-catenin.
Colo 205 Cultured cells with a stably transfected reporter construct were plated at approximately 10,000 cells per well into 384 well multi-well plates for twenty four hours. The testing compounds were then added to the wells in 2-fold serial dilutions using a twenty micromolar top concentration. A series of control wells for each cell type received only compound solvent. Five hours after the addition of compound, reporter activity for luciferase was assayed, by addition of the SteadyGlo luminescence reagent (Promega). The reporter luminescence activity was measured using Pherastar plate reader (BMG Labtech). Readings were normalized to DMSO only treated cells, and normalized activities were then used in the IC50 calculations. The Colo 205 reporter assay data are summarized in Table 45: A<0.3 μM; 0.3 μM≤B<1.0 μM; 1.0 μM≤C<5.0 μM; D≥5.0 μM
Colo 205 reporter assay data has also been obtained for certain R-isomers of Formula (I) wherein R^4 is —H or -D, and wherein the carbon to which R^3 and R^4 are attached (C2 carbon of Formula (X)) has R stereochemistry; such epimeric compounds are represented using the suffix “B” attached to the Compound described herein having the S stereochemistry at the carbon to which R^3 and R^4 are attached: […]

IC50 [nM] | Structure (SMILES)
< 300 | Cc1nc(N[C@H]2C[C@H](Oc3ccc(F)cc3F)C2)nc2c1NC(=O)[C@H](C)N2C (relative stereo) [Compound 295, (7S)-4,7,8-trimethyl-2-((trans-3-(2,4-drifluorophenoxy)cyclobutyl)amino)-7,8-dihydropteridin-6(5H)-one]
300 to 1000 | COCC1(C)C(=O)Nc2c(C)nc(N[C@H]3C[C@H](Oc4cnc(C(F)(F)F)nc4)C3)nc2N1C (relative stereo) [Compound 706, 7-(methoxymethyl)-4,7,8-trimethyl-2-((trans-3-((2-(trifluoromethyl)pyrimidin-5-yl)oxy)cyclobutyl)amino)-7,8-dihydropteridin-6(5H)-one]
1000 to 5000 | COCC1(C)C(=O)Nc2c(C)nc(N[C@H]3C[C@H](Oc4cnc(C(F)(F)F)nc4)C3)nc2N1C (relative stereo) [Compound 710, 7-(methoxymethyl)-4,7,8-trimethyl-2-((trans-3-((2-(trifluoromethyl)pyrimidin-5-yl)oxy)cyclobutyl)amino)-7,8-dihydropteridin-6(5H)-one]
300 to 1000 | COCC1(C)C(=O)Nc2c(C)nc(N[C@H]3C[C@H](Oc4cc(F)c(F)c(F)c4)C3)nc2N1C (relative stereo) [Compound 720, 7-(methoxymethyl)-4,7,8-trimethyl-2-((trans-3-(3,4,5-trifluorophenoxy)cyclobutyl)amino)-7,8-dihydropteridin-6(5H)-one]

same assay, conditions: Homo sapiens, COLO 205, 5 h, Colo 205 TCF/LEF luciferase reporter, five hours after addition of compound; read-out: TCF reporter Colo205 IC50

Structure (SMILES) | IC50 [nM]
Cc1nc(N[C@H]2CC[C@@H](Oc3cc(F)c(F)c(F)c3)C2)nc2c1NC(=O)[C@H](C)N2C (mixture of isomers) [Compound 259, (7S)-4,7,8-trimethyl-2-((cis-3-(3,4,5-trifluorophenoxy)cyclopentyl)amino)-7,8-dihydropteridin-6(5H)-one] | ≥ 5000
Cc1nc(N[C@H]2CC[C@H](Oc3cc(F)c(F)c(F)c3)C2)nc2c1NC(=O)[C@H](C)N2C (mixture of isomers) [Compound 260, (7S)-4,7,8-trimethyl-2-((trans-3-(3,4,5-trifluorophenoxy)cyclopentyl)amino)-7,8-dihydropteridin-6(5H)-one] | 300 to 1000
Cc1nc(N[C@@H]2COC[C@H]2Oc2ccc(F)cc2)nc2c1NC(=O)[C@H](C)N2C (mixture of isomers) [Compound 297, (7S)-2-((trans-4-(4-fluorophenoxy)tetrahydrofuran-3-yl)amino)-4,7,8-trimethyl-7,8-dihydropteridin-6(5H)-one] | ≥ 5000
Cc1nc(N[C@@H]2CC[C@H](NC(=O)c3cc(F)c(F)c(F)c3)C2)nc2c1NC(=O)[C@H](C)N2C (mixture of isomers) [Compound 298, 3,4,5-trifluoro-N-(cis-3-(((S)-4,7,8-trimethyl-6-oxo-5,6,7,8-tetrahydropteridin-2-yl)amino)cyclopentyl)benzamide] | 1000 to 5000
COC1(C2C(=O)Nc3c(C)nc(N[C@H]4C[C@H](Oc5cc(F)c(F)c(F)c5)C4)nc3N2C)CCC1 (relative stereo) [Compound 667, 7-(1-methoxycyclobutyl)-4,8-dimethyl-2-((trans-3-(3,4,5-trifluorophenoxy)cyclobutyl)amino)-7,8-dihydropteridin-6(5H)-one] | < 300
COC1(C2C(=O)Nc3c(C)nc(N[C@H]4C[C@H](COc5ccc(C(F)(F)F)nc5)C4)nc3N2C)CCC1 (relative stereo) [Compound 669, 7-(1-methoxycyclobutyl)-4,8-dimethyl-2-((trans-3-(((6-(trifluoromethyl)pyridin-3-yl)oxy)methyl)cyclobutyl)amino)-7,8-dihydropteridin-6(5H)-one] | < 300
COC1(C2C(=O)Nc3c(C)nc(N[C@H]4C[C@H](Oc5ccc(C(F)(F)F)nc5)C4)nc3N2C)CCC1 (relative stereo) [Compound 671, 7-(1-methoxycyclobutyl)-4,8-dimethyl-2-((trans-3-((6-(trifluoromethyl)pyridin-3-yl)oxy)cyclobutyl)amino)-7,8-dihydropteridin-6(5H)-one] | < 300
COC1(C2C(=O)Nc3c(C)nc(N[C@H]4C[C@@H](Nc5cnc(C(F)(F)F)cn5)C4)nc3N2C)CCC1 (relative stereo) [Compound 672, 7-(1-methoxycyclobutyl)-4,8-dimethyl-2-((cis-3-((5-(trifluoromethyl)pyrazin-2-yl)amino)cyclobutyl)amino)-7,8-dihydropteridin-6(5H)-one] | < 300
COC1(C2C(=O)Nc3c(C)nc(N[C@H]4C[C@@H](Cn5nccc5C(F)(F)F)C4)nc3N2C)CC1 (relative stereo) [Compound 676, 7-(1-methoxycyclopropyl)-4,8-dimethyl-2-((cis-3-((5-(trifluoromethyl)-1H-pyrazol-1-yl)methyl)cyclobutyl)amino)-7,8-dihydropteridin-6(5H)-one] | < 300
Cc1nc(N[C@H]2C[C@@H](Nc3cnc(C(F)(F)F)cn3)C2)nc2c1NC(=O)C1(CCOC1)N2C (relative stereo) [Compound 687, 4′,8′-dimethyl-2′-((cis-3-((5-(trifluoromethyl)pyrazin-2-yl)amino)cyclobutyl)amino)-4,5,5′,8′-tetrahydro-2H,6′H-spiro[furan-3,7′-pteridin]-6′-one] | 300 to 1000
Cc1nc(N[C@H]2C[C@H](Cn3nccc3C(F)(F)F)C2)nc2c1NC(=O)C1(CCOC1)N2C (relative stereo) [Compound 688, 4′,8′-dimethyl-2′-((trans-3-((5-(trifluoromethyl)-1H-pyrazol-1-yl)methyl)cyclobutyl)amino)-4,5,5′,8′-tetrahydro-2H,6′H-spiro[furan-3,7′-pteridin]-6′-one] | < 300
Cc1nc(N[C@H]2C[C@H](Oc3ccc(C(F)(F)F)nc3)C2)nc2c1NC(=O)C1(CCOC1)N2C (relative stereo) [Compound 689, 4′,8′-dimethyl-2′-((trans-3-((6-(trifluoromethyl)pyridin-3-yl)oxy)cyclobutyl)amino)-4,5,5′,8′-tetrahydro-2H,6′H-spiro[furan-3,7′-pteridin]-6′-one] | 300 to 1000
Cc1nc(N[C@H]2C[C@@H](COc3ccc(C(F)(F)F)nc3)C2)nc2c1NC(=O)C1(CCOC1)N2C (relative stereo) [Compound 697, 4′,8′-dimethyl-2′-((cis-3-(((6-(trifluoromethyl)pyridin-3-yl)oxy)methyl)cyclobutyl)amino)-4,5,5′,8′-tetrahydro-2H,6′H-spiro[furan-3,7′-pteridin]-6′-one] | 300 to 1000

More lines, now with the values ahead:

IC50 [nM] | Structure (SMILES)
< 300 | COC1(C2C(=O)Nc3c(C)nc(N[C@H]4C[C@H](Oc5cnc(C(F)(F)F)nc5)C4)nc3N2C)CCC1 (relative stereo) [Compound 718, 7-(1-methoxycyclobutyl)-4,8-dimethyl-2-((trans-3-((2-(trifluoromethyl)pyrimidin-5-yl)oxy)cyclobutyl)amino)-7,8-dihydropteridin-6(5H)-one]
< 300 | COCC1(C)C(=O)Nc2c(C)nc(N[C@H]3C[C@H](Oc4cc(F)c(F)c(F)c4)C3)nc2N1C (relative stereo) [Compound 719, 7-(methoxymethyl)-4,7,8-trimethyl-2-((trans-3-(3,4,5-trifluorophenoxy)cyclobutyl)amino)-7,8-dihydropteridin-6(5H)-one]
300 to 1000 | COCC1(C)C(=O)Nc2c(C)nc(N[C@H]3C[C@H](Oc4ccc(C(F)(F)F)nc4)C3)nc2N1C (relative stereo) [Compound 724, 7-(methoxymethyl)-4,7,8-trimethyl-2-((trans-3-((6-(trifluoromethyl)pyridin-3-yl)oxy)cyclobutyl)amino)-7,8-dihydropteridin-6(5H)-one]
